Assay results as given in paper PMC6920997, “Total Phenolic and Flavonoid Content and Biological Activities of Extracts and Isolated Compounds of Cytisus villosus Pourr” (Biomolecules, 2019).
pIC50: −log10 of the molar value. Converted amounts (≈) assume the structure as drawn. Like-named read-outs stand apart in the source and are kept apart here. Values belong to the molecule of their own block, whether it stands above or below them.

Key:
Type in all cases: cell-based
Aspergillus fumigatus = assay: Antifungal assay A. fumigatus; settings: pure compounds
Method: (§1) Extracts and pure compounds were tested for their antimicrobial activity against Staphylococcus aureus, methicillin-resistant S. aureus (MRSA), Escherichia coli, Pseudomonas aeruginosa, and Mycobacterium intracellulare. The antifungal activities were evaluated against a panel of pathogenic fungi, including Candida albicans, C. glabrata, C. krusei, Aspergillus fumigatus, and Cryptococcus neoformans, associated with opportunistic infections.

[1] = tested on: L. donovani axenic amastigotes; assay: Antileishmanial Alamar Blue assay, axenic amastigotes; settings: Leishmania donovani; for pIC50: read-out: L. donovani Amastigote IC50; for IC90: read-out: L. donovani Amastigote IC90
Excerpt: (§2) The in vitro antileishmanial and antitrypanosomal assays were done on cell cultures of L. donovani promastigotes, axenic amastigotes, THP1-amastigotes, and Trypanosoma brucei trypomastigotes by Alamar Blue assays. The conditions for seeding the THP1 cells, exposure to the test samples, and evaluation of cytotoxicity were the same as described in parasite-rescue and transformation assay. IC50 and IC90 values were computed from the dose response curves using XLfit software (XLfit 5.3.1, IDBS analytical, Boston MA, USA). DFMO (difluoromethylornithine) was used as the positive control. The antiprotozoal activity of C. villosus extracts and isolated compounds were evaluated in vitro against L. donovani promastigotes, axenic amastigotes, and intracellular amastigotes in THP1 cells. The extracts and some isolated compounds were also evaluated against T. brucei trypomastigote forms. All the extracts and compounds were simultaneously tested against THP1 cell for determination of general cytotoxicity. The extracts and isolated compounds were also evaluated for their antimalarial activity against chloroquine-sensitive (D6, Sierra Leone) and chloroquine-resistant strains (W2, Indochina) strains of Plasmodium falciparum. Furthermore, they were tested for cytotoxicity against the Vero cell line.

Staphylococcus aureus = assay: Antibacterial assay S. aureus; settings: pure compounds
Method: as §1

Cryptococcus neoformans = assay: Antifungal assay C. neoformans; settings: pure compounds
Method: as §1

HepG2 cells = assay: Cellular antioxidant activity (CAA) assay
Method: The cellular antioxidant activity was measured in HepG2 cells as described by Wolfe and Rui. The antioxidant activity was expressed in terms of CAA units. The area under the curve (AUC) of fluorescence versus time plot was used to calculate CAA units as described by Wolfe and Rui.

[2] = tested on: L. donovani promastigotes; assay: Antileishmanial Alamar Blue assay, promastigotes; settings: Leishmania donovani; for pIC50: read-out: L. donovani Promastigote IC50; for IC90: read-out: L. donovani Promastigote IC90
Excerpt: as §2

[3] = tested on: Trypanosoma brucei trypomastigotes; assay: Antitrypanosomal Alamar Blue assay; settings: for pIC50 / IC90: Table 4; for pIC50: read-out: T. brucei IC50; for IC90: read-out: T. brucei IC90
Excerpt: as §2

Escherichia coli = assay: Antibacterial assay E. coli; settings: pure compounds
Method: as §1

Pseudomonas aeruginosa = assay: Antibacterial assay P. aeruginosa; settings: pure compounds
Method: as §1

THP1 cells = assay: THP1 cytotoxicity
Excerpt: as §2

THP1 cytotoxicity = settings: human
Excerpt: as §2

Candida albicans = assay: Antifungal assay C. albicans; settings: pure compounds
Method: as §1

[4] = tested on: methicillin-resistant S. aureus (MRSA); assay: Antibacterial assay MRSA; settings: Staphylococcus aureus, pure compounds
Method: as §1

[5] = tested on: L. donovani intracellular amastigotes in THP1 cells; assay: Antileishmanial assay, intracellular amastigotes in THP1 cells; settings: Leishmania donovani; for pIC50: THP-1, read-out: L. donovani Amastigote/THP1 IC50; for IC90: THP-1, read-out: L. donovani Amastigote/THP1 IC90
Excerpt: as §2

iNOS = assay: Inhibition of iNOS (intracellular NO production) in RAW 264.7 macrophages; settings: Mus musculus, RAW264.7; RAW 264.7 cells; NA = no activity at 25 µg/mL (pure compounds) or 100 µg/mL (extracts)
Method: The extracts and isolated compounds of C. villosus were evaluated in terms of their interaction with cellular targets related to inflammation and metabolic disorders, such as iNOS and NF-κB. The inhibition of intracellular NO production as a result of iNOS activity was assayed in mouse macrophages (RAW 264.7cells). Cytotoxicity of test samples to macrophages was also determined in parallel to check if the inhibition of iNOS was due to cytotoxic effects.

NF-κB = assay: Reporter gene assay for the inhibition of NF-κB; settings: PMA-treated cells, luciferase reporter; NA = no activity at 25 µg/mL (pure compounds) or 100 µg/mL (extracts); read-out: Inhibition of NF-kB IC50
Method: Reporter gene assay for the inhibition of NF-κB Activity was performed as described earlier. In brief, cells transfected with NF-κB luciferase plasmid construct were plated in 96-well plates at a density of 1.25 × 10^5 cells/well. After 24 h, cells were treated with the test compounds and, after incubating for 30 min, phorbol 12-myristate 13-acetate (PMA) (Sigma-Aldrich, Burlington MA, USA) (70 ng/mL) was added and further incubated for 6−8 h. Luciferase activity was measured as described above. Percent decrease in luciferase activity was calculated relative to the vehicle control. Parthenolide (Sigma-Aldrich, Burlington MA, USA) was used as a positive control.

[6] = Cytotoxicity assay (neutral red) LLC-PK1; settings: pig, LLC-PK1 cells (noncancerous kidney cells), NC = Not cytotoxic
Method: (§3) Each assay was performed in 96-well tissue culture-treated microplates. […] All cell lines were obtained from the American Type Culture Collection (ATCC, Rockville, MD, USA). Each assay was performed in 96-well tissue culture-treated microplates. Cells were seeded at a density of 25,000 cells/well and incubated for 24 h. Samples at different concentrations were added and cells were again incubated for 48 h. At the end of incubation, the cell viability was determined using neutral red dye according to a modification of the procedure of Borenfreund et al.. IC50 values were determined from dose−response curves of percent growth inhibition against test concentrations. Doxorubicin was used as a positive control, while DMSO was used as the negative (vehicle) control.

[7] = Cytotoxicity assay (neutral red) BT-549; settings: human, BT-549 cells, NA = No activity at 100 μM
Method: as §3

[8] = Cytotoxicity assay (neutral red) SK-OV-3; settings: human, SK-OV-3 cells, NA = No activity at 100 μM
Method: as §3

[9] = Cytotoxicity assay (neutral red) KB; settings: human, KB cells, NA = No activity at 100 μM
Method: as §3

[10] = Cytotoxicity assay (neutral red) SK-MEL; settings: human, SK-MEL cells, NA = No activity at 100 μM
Method: as §3

Compound: C[C@@H]1O[C@@H](O[C@@H]2[C@@H](O)[C@H](O)[C@@H](CO)O[C@H]2c2c(O)cc(O)c3c(=O)cc(-c4ccc(O)c(O)c4)oc23)[C@H](O)[C@H](O)[C@H]1O [Compound 4, 2″-O-α-L-rhamnosylorientin]
- IC50 (Aspergillus fumigatus): > 20 µg/mL
- pIC50 [1]: < 5.00
- IC90 [1]: > 10 µM
- IC50 (Staphylococcus aureus): > 20 µg/mL
- IC50 (Cryptococcus neoformans): > 20 µg/mL
- % Decrease in Oxidative Stress (HepG2 cells; concentration 250 µg/mL): 28%
- % Decrease in Oxidative Stress (HepG2 cells; concentration 500 µg/mL): 29%
- % Decrease in Oxidative Stress (HepG2 cells; concentration 1000 µg/mL): 36%
- pIC50 [2]: < 5.00
- IC90 [2]: > 10 µM
- pIC50 ([3]; Trypanosoma brucei): < 5.00
- IC90 ([3]; Trypanosoma brucei): > 10 µM
- T. brucei IC50 ([3]; as given in the text): didn’t show an effect
- IC50 (Escherichia coli): > 20 µg/mL
- IC50 (Pseudomonas aeruginosa): > 20 µg/mL
- THP1 Cytotoxicity C90 (THP1 cells): >10 µM
- pIC50 (THP1 cytotoxicity; THP1 cells, read-out: THP1 Cytotoxicity IC50): < 5.00
- IC50 (Candida albicans): > 20 µg/mL
- IC50 [4]: > 20 µg/mL
- pIC50 [5]: < 5.00
- IC90 [5]: > 10 µM

Compound: O=c1c(O)c(-c2ccc(O)c(O)c2)oc2cc(O)cc(O)c12 [Quercetin, reference compound]
- % Decrease in Oxidative Stress (HepG2 cells; 25 µM): 77%

Compound: COc1cccc2c1C(=O)c1c(O)c3c(c(O)c1C2=O)C[C@@](O)(C(=O)CO)C[C@@H]3O[C@H]1C[C@H](N)[C@H](O)[C@H](C)O1 [doxorubicin, Doxorubicin]
- IC50 at 48 h [6]: 1.2 µg/mL (≈ 2.21 µM)
- IC50 at 48 h [7]: 0.9 µg/mL (≈ 1.66 µM)
- IC50 at 48 h [8]: 2 µg/mL (≈ 3.68 µM)
- IC50 at 48 h [9]: 1.3 µg/mL (≈ 2.39 µM)
- IC50 at 48 h [10]: 0.8 µg/mL (≈ 1.47 µM)

Further lines, with some results ahead:

- pIC50 [3]: 5.44
- IC90 [3]: 8.8 µM
Compound: NCCCC(N)(C(=O)O)C(F)F (centres unmarked) [DFMO, difluoromethylornithine, reference compound]

- IC50 (iNOS): 0.2 µg/mL (≈ 0.805 µM)
- IC50 (NF-κB): 1.63 µg/mL (≈ 6.56 µM)
Compound: C=C1C(=O)O[C@H]2[C@H]1CC/C(C)=C/CC[C@@]1(C)O[C@@H]21 [Parthenolide, reference compound]

- pIC50 [1]: 5.02
- IC90 [1]: > 10 µM
- pIC50 [2]: 5.83
- IC90 [2]: 2.38 µM
- pIC50 ([3]; Trypanosoma brucei): 9.00
- IC90 ([3]; Trypanosoma brucei): 0.002 µM
- pIC50 [5]: 5.94
- IC90 [5]: 5.59 µM
Compound: N=C(N)c1ccc(OCCCCCOc2ccc(C(=N)N)cc2)cc1 [Pentamidine, reference compound]
- THP1 Cytotoxicity C90 (THP1 cells; human): >10 µM
- pIC50 (THP1 cytotoxicity): < 5.00
